# Assay results reported in US20260355171A1, “INHIBITORS AND USES THEREFOR” (priority 2022, published 2026).
# Like-named read-outs stand apart in the source and are kept apart here.
# What was measured:
# primary neurons [1] = experiment: Cytotoxicity / neuronal cell death in the presence of NSP5 (PI/DAPI)
# primary neurons [2] = experiment: Neuronal cell death in the presence of NMDA; type: cell-based, mouse; details: 1 or 10 μM compound, 100 μM NMDA
# Experimental: (§1) Primary neurons were treated with 0.4, 1, 2, 10 or 50 μM of compound 2 or compound 22 (prepared according to Example 2). NSP5 was added to primary neurons at DIV11, and compound 2 or 22 was added 48 hours later. Cells were treated with propidium iodide 48 hours after compound addition. Cells were washed with PBS and fixed with 4% PFA. Cells were then washed and stained with DAPI. Images of cells were taken with ZEISS Axioscan 7 microscope slide scanner. Cell death was determined by Image J analysis, counting the death cell (red, PI)) vs all cells (blue, DAPI).
# (§2) One hour after compound addition (1 or 10 μM of compound 2 or compound 22) neurons were treated with a cytotoxic agent (100 μM N-methyl-D-aspartate (NMDA), 100 μM H2O2 or 5 μM staurosporine). One hour after treatment with the cytotoxic agent, the media was replaced with fresh media and the neurons were incubated for 24 hours. A final concentration of 1 μM propidium iodide (PI) was added into the well and incubated for 5 mins. Cells were washed with phosphate-buffered saline (PBS) and then fixed with 4% PFA. Cells were then washed and stained with DAPI, and cell death determined as described above.
# [3] = tested on: PHP.B hSyn-NSP5-V5 adeno-associated virus; experiment: Hanging wire test; type: in vivo, mouse; details: 10 mg/kg daily, vs Paxlovid and vehicle
# Experimental: (§3) In vivo testing was performed on 5-month-old female C57BL/6 wildtype mice injected intravenously with PHP.B hSyn-NSP5-V5 adeno-associated virus (AAV) and treated daily with compound 22 (10 mg/kg), Paxlovid (nirmatrelvir/ritonavir) (10 mg/kg nirmatrelvir: 3.33 mg/kg ritonavir) or a vehicle control (n=10 per group).
# Motor testing was performed on the Rota-rod five times daily over a three-day testing period as previously described (refer to Ke et al. (2015) Acta Neuropathol, 130: 661-678). Motor coordination was also assessed using the hanging wire test at 14 and 22 days post injection with the AAV, which assessed the time hanging upside down on a wire grid (refer to Chan et al. (2020) Am J Path, 190(8): 1713-1722). Anxiety, disinhibition and exploratory behaviour was assessed using the elevated plus maze (EPM) test as previously described (refer to Ke et al. (2015) Acta Neuropathol, 130: 661-678).
# [4] = Mouse pharmacokinetics, IV administration; type: in vivo
# Experimental: (§4) Pharmacokinetic parameters of compound 22 (prepared in accordance with Example 2) were determined following intravenous (IV, 3 mg/kg) and intraperitoneal (IP, 10 mg/kg) administration to male C57BL/6 mice.
# (§5) IV and IP formulations were prepared separately by dissolving solid compound 22 in dimethyl sulfoxide (DMSO) prior to addition of 50 mM phosphate buffered saline (pH 6.5) using vortexing and sonication to produce a colourless solution, and giving a final DMSO concentration of 5% (v/v) for each formulation. The IV formulation was filtered through a 0.22 μm syringe filter prior to dosing, whereas the IP formulation was not filtered.
# (§6) The pharmacokinetics of compound 22 was studied in non-fasted male C57BL/6 mice weighing 21.1-26.5 g. Mice had access to food and water ad libitum throughout the pre- and post-dose sampling period.
# (§7) Compound 22 was dosed to mice by bolus injection into the lateral tail vein (2 mL/kg) for IV administration and by injection into the IP cavity (5 mL/kg) for IP administration. After dosing, blood samples were collected up to 24 h (n=3 mice per time point) with a maximum of three samples from each mouse via submandibular bleed (approximately 120 μL). No urine samples were collected as mice were housed in bedded cages. Blood was collected into polypropylene Eppendorf tubes containing heparin as anticoagulant. Once collected, blood samples were centrifuged immediately, supernatant plasma was removed, and stored at −80 °C until analysis by liquid chromatography-mass spectrometry (LC-MS). A summary of the bioanalytical method is included in Table 5.
# (§8) Concentrations of test compound in plasma and tissue samples were determined using a liquid chromatography with tandem mass spectrometry (LCMS/MS) method validated for linearity, accuracy, precision, matrix factor and recovery (refer to Table 5).
# (§9) Plasma: The plasma calibration curve was prepared by spiking aliquots of blank mouse plasma (25 μL) with test compound standard solutions (5 μL) and internal standard solution (5 μL of diazepam, 5 μg/mL in 50% acetonitrile in water). Test plasma samples (25 μL) were thawed, mixed and then spiked with internal standard solution (5 μL). Plasma protein precipitation was performed by addition of acetonitrile (3-fold volume ratio) and thorough vortex mixing. Samples were centrifuged (RCF=9391×g) for 3 minutes and the supernatant (100 μL) was collected for analysis. The analysis of blood/plasma (B/P) partitioning samples was conducted similarly as for the plasma samples, using protein precipitation with acetonitrile as described above.
# (§10) The plasma concentration versus time profile was defined by the average plasma concentration at each sample time, and PK parameters were calculated using non-compartmental methods (PKSolver Version 2.0). Standard calculations for each pharmacokinetic parameter are listed below.
# primary neurons [5] = experiment: Effect of compounds on neuronal cell death caused by NSP5 (Example 6); type: cell-based, mouse; details: 10 μM, 48 hours
# [6] = Unbound fraction (fu) in mouse plasma; type: in vitro ADME
# primary neurons [7] = experiment: Neuronal cell death in the presence of staurosporine; type: cell-based, mouse; details: 1 or 10 μM compound, 5 μM staurosporine
# Experimental: as §1, §2
# primary neurons [8] = experiment: Neuronal cell death in the presence of H2O2; type: cell-based, mouse; details: 1 or 10 μM compound, 100 μM H2O2
# Experimental: as §1, §2
# [9] = Mouse pharmacokinetics, IP administration; type: in vivo
# Experimental: as §4, §5, §6, §7, §8, §9, §10
# [10] = tested on: PHP.B hSyn-NSP5-V5 adeno-associated virus; experiment: Weight loss after AAV injection; type: in vivo, mouse; details: 10 mg/kg daily, vs Paxlovid and vehicle; significant at day 19 to end
# Experimental: as §3
# Weight loss was monitored over a 21-day period post injection with the AAV.
# [11] = mouse, plasma, IP 10 mg/kg, male C57BL/6 mice
smiles,measurement,setting,value
NC(=O)C1CCN(c2ncccc2CNCc2cccc3[nH]ccc23)CC1 [Compound 22],Reduction of neuronal cell death caused by NSP5,"primary neurons [1]; 0.4, 1, 2, 10 or 50 μM, 48 hours",selectively reduced neuronal cell death caused by NSP5
same,Cell death caused by compound,primary neurons [1]; therapeutic concentrations (nM to low μM),did not cause any cell death
same,Protection from NMDA-induced neurotoxicity,primary neurons [2],did not protect
same,"Hanging wire test, mice reaching maximum time",[3]; 14 days post AAV,more compound 22-treated mice reaching the maximum time
same,"Hanging wire test, mice reaching maximum time",[3]; 22 days post AAV,more compound 22-treated mice reaching the maximum time
same,Apparent blood volume of distribution,[4]; IV 3 mg/kg,high
same,Blood clearance,[4]; IV 3 mg/kg,moderate
same,Duration of measurable plasma concentrations,[4]; IV 3 mg/kg,24 h
same,In vivo blood clearance relative to nominal hepatic blood flow,"[4]; IV 3 mg/kg, mouse",~ 50%
same,In vivo hepatic extraction ratio,"[4]; IV 3 mg/kg, assuming predominantly hepatic clearance",moderate
same,clearance,"[4]; mouse, blood, IV 3 mg/kg, extrapolation to infinity, approximation only, read-out: Blood CL",60.6 mL/min/kg
same,Vd,"[4]; mouse, blood, IV 3 mg/kg, extrapolation to infinity, approximation only, read-out: Blood VSS",16.6 L/kg
same,half-life,"[4]; mouse, plasma, iv, 3 mg/kg, male C57BL/6 mice, terminal phase not clearly defined, approximation only, read-out: Apparent t1/2 (converted)",~14 h
same,AUC(0-t),"[4]; mouse, plasma, IV 3 mg/kg, male C57BL/6 mice, read-out: Plasma AUC0-last",1.51 µM·h
same,AUC(0-inf),"[4]; mouse, plasma, IV 3 mg/kg, extrapolation to infinity, approximation only, read-out: Plasma AUC0-inf",1.62 µM·h
same,clearance,"[4]; mouse, plasma, IV 3 mg/kg, extrapolation to infinity, approximation only, read-out: Plasma CL",84.9 mL/min/kg
same,Vd,"[4]; mouse, plasma, IV 3 mg/kg, extrapolation to infinity, approximation only, read-out: Plasma VSS",23.3 L/kg
same,Reduction of neuronal cell death caused by NSP5,primary neurons [5],greatest activity
same,fraction unbound,[6],0.547
same,Protection from staurosporine-induced neurotoxicity,primary neurons [7],did not protect
same,Protection from H2O2-induced neurotoxicity,primary neurons [8],did not protect
same,BA (apparent bioavailability),"[9]; IP 10 mg/kg, truncated AUC0-7.5 h, likely slight underestimation, 10 mg/kg, 450 min",47.3%
same,bioavailability at 7.5 h,"[9]; mouse, plasma, ip, 10 mg/kg, truncated AUC0-7.5 h, likely slight underestimation, read-out: BA (apparent bioavailability)",47%
same,Cmax,[9]; [11],4.25 µM
same,Tmax,[9]; [11],0.25 h
same,AUC(0-t),"[9]; mouse, plasma, IP 10 mg/kg, male C57BL/6 mice, read-out: Plasma AUC0-last",2.56 µM·h
same,Weight loss from 17 days post injection,[10],weight loss was less severe
